From patent US20170145005A1, “KINASE INHIBITOR” (THE UNIVERSITY OF TOKYO, priority 2014, published 2017)

Experiments:
[1] = target: PIM-3 kinase (Homo sapiens, UniProt Q86V86); test: Measurement of PIM-3 kinase inhibitory activity (fluorescent substrate peptide, capillary electrophoresis); type: biochemical; settings: 30 μM ATP, 2 hours at room temperature
Protocol: 1.5 μM of fluorescent substrate peptide (FAM-AKRRRLSSLRA-COOH), 30 μM of ATP, and 0.0833 ng/μL of PIM-3 kinase were incubated with a compound for 2 hours at room temperature, and the Pim-3 kinase activity was measured. The reaction was quantified by separating the substrate and phosphorylation reaction product by capillary electrophoresis (using a Perkin-Elmer EZ reader II) based on the difference in their charges. The results are shown below in Tables 1 and 2.

[2] = system: MiaPaca-2; test: Growth inhibitory activity on human pancreatic cancer cell lines (Example 2, WST-8); type: cell-based; settings: Homo sapiens, MIA PaCa-2; cultured for 96 hours, 2000 cells/well
Protocol: (§1) Two thousand cells of human pancreatic cancer cells lines (L3.6pl, MiaPaca-2, PANC-1, PCI35, PCI66) were seeded in a medium volume of 100 μL in each well of a 96-well microtiter plate. The medium was removed after 18 hours, and 100 μL/well of medium containing the test compound was added. Culture was continued for 72 or 96 hours. The medium containing the test compound was removed, and 100 μL/well of medium containing 10% WST-8 (Dojindo Laboratories Cell Counting kit-8) was added. After culturing for one hour, the OD 450 nm absorbance was measured, and the cell growth inhibitory activity was calculated. Furthermore, RPMI-1640 medium (Sigma) was used as the medium with 10% fetal calf serum (Invitrogen), 50 U/mL penicillin G (Sigma), and 50 μg/mL streptomycin (Sigma) added. The cell lines were cultured at 37° C. in a carbon dioxide incubator with a carbon dioxide concentration of 5%.
(§2) Tables 3 and 4 show the results of compound evaluation when cultured for 96 hours.

[3] = system: PCI66; test: as above; type: cell-based; settings: cultured for 96 hours, 2000 cells/well
Protocol: as §1, §2

[4] = system: PCI35; test: as above; type: cell-based; settings: cultured for 96 hours, 2000 cells/well
Protocol: as §1, §2

[5] = system: PCI66 cells; test: Animal study: subcutaneous PCI66 tumor in nude mice; type: in vivo, BALB/c nu/nu mice; settings: 30 mg/kg intraperitoneal, once a day for five days then two days off, three cycles, from day 14 after tumor injection
Protocol: PCI66 cells, which are human pancreatic cancer cells, were suspended in Hanks balanced salt solution in a concentration of 2×10^7 cells/mL, and 100 μL of the cell suspension was injected subcutaneously to the backs of BALB/c nu/nu mice (SLC, Shizuoka, Japan). Drug administration was begun 14 days after tumor injection. The drug was administered once a day for five days intraperitoneally, then withheld for two days. This cycle was repeated three times. The tumor volume was calculated by the following formula.
Tumor volume(cm^3)=[maximum diameter](cm)×[minimum diameter]^2(cm)/2

[6] = system: MiaPaca-2; test: Growth inhibitory activity on human pancreatic cancer cell lines (Example 4, WST-8); type: cell-based; settings: MIA PaCa-2, Example 4: 72 hours, 3000 cells/well
Protocol: (§3) Three thousand cells of human pancreatic cancer cell lines (L3.6pl, MiaPaca-2, PANC-1, PCI35, and PCI66) were seeded in a medium volume of 90 μL in each well of a 96-well microtiter plate. After 24 hours, 10 μL/well of medium containing the test compound was added. Culture was continued for 72 hours, and 10 μL/well of WST-8 (Dojindo Laboratories Cell Counting kit-8) was added. After culturing for 2 hours, the OD 450 nm absorbance was measured, and the cell growth inhibitory effect was calculated. The cell lines were cultured in a carbon dioxide incubator with a carbon dioxide concentration of 5%.

[7] = system: L3.6pl; test: as above; type: cell-based; settings: Example 4: 72 hours, 3000 cells/well
Protocol: as §3

[8] = system: PCI66; test: as above; type: cell-based; settings: Example 4: 72 hours, 3000 cells/well
Protocol: as §3

[9] = system: PCI35; test: as above; type: cell-based; settings: Example 4: 72 hours, 3000 cells/well
Protocol: as §3

[10] = system: PANC-1; test: as above; type: cell-based; settings: Example 4: 72 hours, 3000 cells/well
Protocol: as §3

IC50 [1] [nM] | IC50 [2] [nM] | IC50 [3] [nM] | IC50 [4] [nM] | IC50 [6] [nM] | IC50 [7] [nM] | IC50 [8] [nM] | IC50 [9] [nM] | IC50 [10] [nM] | SMILES | tumor volume [5]
7.6 | 1600 | 1800 | 1800 | – | – | – | – | – | COc1ccc2c(c1C(C)N1CCNCC1)O/C(=C\c1n[nH]c3ncccc13)C2=O (centres unmarked) [Compound 6, (Z)-2-[(1H-pyrazolo[3,4-b]pyridin-3-yl)methylene]-6-methoxy-7-[1-(piperazin-1-yl)ethyl]benzofuran-3(2H)-one] | suppress an increase in tumor volume
0.51 | – | – | – | 2900 | 3300 | 4200 | 5300 | 8100 | COc1ccc2c(c1CN1CCC[C@H](N)C1)O/C(=C\c1n[nH]c3ncccc13)C2=O [Compound 32, (S,Z)-2-[(1H-pyrazolo[3,4-b]pyridin-3-yl)methylene]-7-[(3-aminopiperidin-1-yl)methyl]-6-methoxybenzofuran-3(2H)-one] | –
